This note sets out measurements from patent US10517889B2, “Modulators of SMAD7 expression” (Ionis Pharmaceuticals, Inc., priority 2017, dated 2019).

The data set deals with human SMAD7 mRNA. Description: Antisense inhibition of human SMAD7 mRNA expression in Hep3B cells by 3-10-3 cEt gapmers, 10,000 nM, electroporation (Example 2). It counts as cell-based. The following applies: approximately 24 hours. The gist of the method:
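Percent inhibition of SMAD7 mRNA, relative to untreated cells, after ~24 h exposure of electroporated Hep3B cells to 10,000 nM cEt gapmer; levels by qRT-PCR, corrected for total RNA.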

[1] abbreviates: Hep3B cells, electroporation with 10,000 nM antisense oligonucleotide, primer probe set RTS5062, relative to untreated control cells.
The mark [2] stands for this setting: SMAD7 mRNA, Hep3B cells, 10,000 nM antisense oligonucleotide, electroporation, primer probe set RTS5062, relative to untreated control cells.
Where [3] appears, read: Hep3B cells, 10,000 nM antisense oligonucleotide, electroporation, RT-PCR primer probe set RTS5062, relative to untreated control cells.
The mark [4] stands for this setting: SMAD7 mRNA, Hep3B cells, electroporation with 10,000 nM antisense oligonucleotide, primer probe set RTS5062, relative to untreated control cells.
Setting [5] is: Hep3B cells, electroporation with 10,000 nM antisense oligonucleotide, RTS5062, percent inhibition of SMAD7 mRNA relative to untreated control cells.
Setting [6] is: Hep3B cells, electroporation with 10,000 nM antisense oligonucleotide, SMAD7 mRNA by RT-PCR (RTS5062), relative to untreated control cells.
Where [7] appears, read: Hep3B cells, electroporation, 10,000 nM antisense oligonucleotide, RTS5062, relative to untreated control cells.

Strand notation (5' to 3'): a small letter for the sugar, then the base; units joined by * are phosphorothioate-linked, units joined directly phosphodiester-linked; [ ] holds rarer units or linkages, { } end groups; capitals alone tell only the bases. k = constrained ethyl (cEt); [5mC] = 5-methylcytosine; d = 2'-deoxy (DNA)

For “798776 (kA*k[5mC]*kA*d[5mC]*dA*dG*d[5mC]*d[5mC]*dT*d[5mC]*dT*dT*dG*kA*k[5mC]*kT; antisense) [compound 798776]”, the “% inhibition of SMAD7 mRNA expression” value under setting [1] was found to be 34%.

For “799080 (antisense kA*kG*kG*dG*dA*dG*dA*dT*d[5mC]*d[5mC]*dA*dG*dG*kA*kG*k[5mC]) [compound 799080]”, under setting [1], the “% Inhibition” value is 56%.

Take “829747 (antisense kT*k[5mC]*kG*d[5mC]*d[5mC]*dG*d[5mC]*d[5mC]*dG*dG*dG*d[5mC]*dG*k[5mC]*kA*k[5mC]) [compound 829747]”: under setting [2], the “% Inhibition” value turned out to be 16%.

For the substance “798820 (kT*k[5mC]*kT*d[5mC]*d[5mC]*dT*d[5mC]*d[5mC]*d[5mC]*dA*dG*dT*dA*kT*kG*k[5mC]; antisense) [compound 798820]”, the “% Inhibition” value under setting [3] was 24%.

Consider “772708 (kA*kA*kA*dG*dT*dG*d[5mC]*dA*dT*d[5mC]*dT*dT*dT*kT*k[5mC]*kT; antisense) [compound 772708]”, for which the “% inhibition of SMAD7 mRNA expression” value under setting [1] is 0%.

For the substance “799381 (antisense kA*kA*k[5mC]*dA*dG*dA*dT*d[5mC]*dT*dA*dT*d[5mC]*dT*k[5mC]*k[5mC]*kT) [compound 799381]”, the “% inhibition of SMAD7 mRNA expression” value under setting [1] worked out at 54%.

Take “829976 (kA*k[5mC]*kA*dA*dA*dA*dG*dA*dG*dG*d[5mC]*d[5mC]*dG*k[5mC]*k[5mC]*kT; antisense) [compound 829976]”: the “% Inhibition” value under setting [4] is listed as 10%.

As for “799842 (antisense kG*kA*kA*dA*dG*dA*dA*dT*dG*dG*dT*dG*dG*kG*kT*kG) [compound 799842]”, under setting [5], the “% Inhibition” value is on record as 16%.

For the substance “799512 (antisense kG*kT*kT*dA*dA*dT*dG*dA*dG*dG*dA*dT*dA*kA*kT*kG) [compound 799512]”, the “% Inhibition” value under setting [6] is 16%.

As to “800028 (k[5mC]*kA*k[5mC]*dA*dG*d[5mC]*d[5mC]*d[5mC]*dA*d[5mC]*dA*d[5mC]*dG*kA*kG*kT; antisense) [compound 800028]”, under setting [6], the “% Inhibition” value is 10%.

In the case of “830056 (kG*kT*kT*dT*dT*dG*dG*dG*dT*dG*dA*dG*dT*kA*kA*k[5mC]; antisense) [compound 830056]”, under setting [6], the “% Inhibition” value was found to be 40%.

In the case of “798743 (antisense kT*kG*k[5mC]*d[5mC]*dG*d[5mC]*dT*d[5mC]*d[5mC]*dT*dT*d[5mC]*dA*kG*kT*kT) [compound 798743]”, the “% inhibition of SMAD7 mRNA expression” value under setting [1] is 19%.

Take “800027 (k[5mC]*kG*k[5mC]*dT*dT*dT*dG*d[5mC]*dT*d[5mC]*d[5mC]*d[5mC]*dA*kG*kG*kG; antisense) [compound 800027]”: the “% Inhibition” value under setting [6] was 0%.

On to “800091 (antisense kT*kG*kA*d[5mC]*dA*d[5mC]*dA*dG*d[5mC]*d[5mC]*dA*dG*dA*kG*k[5mC]*kT) [compound 800091]”, for which the “% Inhibition” value under setting [3] is recorded as 0%.

In the case of “799548 (k[5mC]*kT*k[5mC]*d[5mC]*dT*dA*d[5mC]*dT*dG*dT*dT*dG*dG*k[5mC]*kA*kG; antisense) [compound 799548]”, the “% Inhibition” value under setting [5] was found to be 39%.

For the substance “799136 (antisense k[5mC]*kT*kT*d[5mC]*dT*dT*dG*dG*dA*dG*dG*dG*dA*kA*kG*kG) [compound 799136]”, the “% Inhibition” value under setting [1] was 3%.

For the substance “799957 (antisense kT*k[5mC]*kT*dG*dA*dG*dG*d[5mC]*dT*d[5mC]*d[5mC]*dT*dG*kG*kG*kT) [compound 799957]”, the “% Inhibition” value under setting [3] stood at 11%.

Consider “799491 (antisense kG*kG*k[5mC]*dA*dG*dG*d[5mC]*dA*dG*dG*dA*dA*dA*kT*kG*kG) [compound 799491]”, for which the “% Inhibition” value under setting [6] is given as 38%.

Regarding “790635 (kG*kG*kA*d[5mC]*dA*dG*dT*d[5mC]*dA*dG*dT*dT*dG*kG*kT*kT; antisense) [compound 790635]”, the “% inhibition of SMAD7 mRNA expression” value (Hep3B cells, electroporation, 10,000 nM, 3-10-3 cEt gapmers targeting SEQ ID NO: 3 and 4) was determined as 40%.

For the substance “772555 (antisense kA*kG*kG*d[5mC]*dA*d[5mC]*dG*d[5mC]*dG*dG*dT*dG*d[5mC]*kG*k[5mC]*kG) [compound 772555]”, under setting [1], the “% inhibition of SMAD7 mRNA expression” value is 23%.

Regarding “772572 (antisense kA*kT*k[5mC]*dT*dT*d[5mC]*d[5mC]*d[5mC]*dG*dT*dA*dA*dG*kA*kT*kT) [compound 772572]”, the “% Inhibition” value under setting [6] stood at 0%.

“798936 (antisense kG*k[5mC]*kA*dT*dG*dA*dA*dA*dA*dG*d[5mC]*dA*dA*kG*k[5mC]*kA) [compound 798936]”: the “% Inhibition” value under setting [1] is listed as 14%.

On to “799683 (antisense k[5mC]*kT*kG*d[5mC]*dA*dG*dA*dA*dG*dA*dG*dG*d[5mC]*kG*kG*kG) [compound 799683]”, for which, under setting [5], the “% Inhibition” value is given as 32%.

Consider “800035 (k[5mC]*kA*kA*dA*dG*dG*d[5mC]*d[5mC]*d[5mC]*d[5mC]*dT*d[5mC]*dG*kA*kA*k[5mC]; antisense) [compound 800035]”, for which the “% Inhibition” value under setting [3] is reported as 34%.

For the substance “799088 (antisense kG*k[5mC]*kT*dG*d[5mC]*d[5mC]*d[5mC]*d[5mC]*dG*dG*d[5mC]*dA*dG*k[5mC]*k[5mC]*k[5mC]) [compound 799088]”, the “% inhibition of SMAD7 mRNA expression” value under setting [1] is 24%.

As to “799375 (antisense kG*k[5mC]*k[5mC]*dT*dA*dT*dA*d[5mC]*dT*dT*d[5mC]*dT*dG*kA*kA*kA) [compound 799375]”, the “% Inhibition” value under setting [6] amounted to 10%.

“829911 (antisense k[5mC]*kG*kA*d[5mC]*d[5mC]*dA*dA*dA*dG*dA*dG*dT*dT*kT*kG*k[5mC]) [compound 829911]”: the “% Inhibition” value under setting [4] came out at 52%.

Take “798877 (k[5mC]*kA*kT*dT*dG*dG*dG*d[5mC]*d[5mC]*dG*d[5mC]*dT*dG*k[5mC]*kA*kG; antisense) [compound 798877]”: the “% Inhibition” value under setting [3] turned out to be 24%.

Take “798741 (antisense k[5mC]*kT*kT*d[5mC]*dA*dG*dT*dT*dT*d[5mC]*dT*dT*dG*kA*kG*k[5mC]) [compound 798741]”: the “% Inhibition” value under setting [6] was found to be 17%.

Take “772689 (kG*kT*kT*d[5mC]*dA*dT*dT*dT*dA*dA*dA*d[5mC]*d[5mC]*kT*kT*kT; antisense) [compound 772689]”: under setting [1], the “% inhibition of SMAD7 mRNA expression” value turned out to be 26%.

Turning to “800102 (antisense kA*k[5mC]*kG*dA*dG*dA*d[5mC]*dA*dG*dA*dA*dA*dG*kA*kA*kG) [compound 800102]”, the “% Inhibition” value under setting [6] is 21%.

Take “799783 (kG*k[5mC]*kA*d[5mC]*dA*dT*dA*dA*dT*dA*dG*dG*dT*kG*kT*k[5mC]; antisense) [compound 799783]”: the “% Inhibition” value under setting [5] amounted to 24%.

As for “829788 (kT*k[5mC]*k[5mC]*dG*dA*dG*dG*dA*dA*dT*dG*d[5mC]*d[5mC]*kT*kG*kA; antisense) [compound 829788]”, the “% Inhibition” value under setting [2] was 41%.

For the substance “799617 (k[5mC]*kA*kA*d[5mC]*d[5mC]*dT*dG*d[5mC]*dA*dG*d[5mC]*d[5mC]*dA*kG*k[5mC]*kA; antisense) [compound 799617]”, the “% inhibition of SMAD7 mRNA expression” value under setting [7] is 50%.

As for “772543 (antisense kG*kG*kA*d[5mC]*dG*dA*dG*d[5mC]*dG*d[5mC]*dA*dG*dA*kT*k[5mC]*kG) [compound 772543]”, the “% inhibition of SMAD7 mRNA expression” value under setting [1] was determined as 58%.

For “798969 (antisense kT*kG*k[5mC]*d[5mC]*dG*dA*dT*d[5mC]*dA*dT*dA*d[5mC]*d[5mC]*kT*kG*k[5mC]) [compound 798969]”, the “% inhibition of SMAD7 mRNA expression” value under setting [1] amounted to 48%.

As to “829840 (kG*kG*kA*d[5mC]*dA*d[5mC]*dA*dG*dT*dA*dG*dA*dG*k[5mC]*k[5mC]*kT; antisense) [compound 829840]”, the “% Inhibition” value under setting [4] turned out to be 0%.

On to “798951 (antisense kT*k[5mC]*kT*d[5mC]*dA*dA*dA*dG*dA*dG*d[5mC]*dG*dA*kA*kA*k[5mC]) [compound 798951]”, for which the “% inhibition of SMAD7 mRNA expression” value under setting [1] is on record as 37%.

Regarding “790460 (kA*kG*kG*dA*dG*d[5mC]*dG*dG*d[5mC]*dG*dG*d[5mC]*dG*kG*k[5mC]*k[5mC]; antisense) [compound 790460]”, under setting [6], the “% Inhibition” value is 58%.

“799694 (antisense kA*kA*kG*dG*dA*dA*dT*dT*dA*dT*dG*dA*d[5mC]*kA*k[5mC]*kA) [compound 799694]”: under setting [7], the “% inhibition of SMAD7 mRNA expression” value came out at 7%.

For “799464 (antisense kA*kA*kG*d[5mC]*dA*d[5mC]*dT*dT*dG*dG*dT*dA*dA*kG*k[5mC]*kA) [compound 799464]”, the “% inhibition of SMAD7 mRNA expression” value under setting [1] stood at 40%.

For “799621 (kT*kT*kT*d[5mC]*dA*d[5mC]*dT*dG*d[5mC]*dA*dA*dG*dT*k[5mC]*k[5mC]*k[5mC]; antisense) [compound 799621]”, the “% inhibition of SMAD7 mRNA expression” value under setting [7] is listed as 49%.

Consider “798725 (antisense kT*k[5mC]*kG*d[5mC]*dA*d[5mC]*d[5mC]*dG*d[5mC]*d[5mC]*dT*dT*dG*k[5mC]*k[5mC]*k[5mC]) [compound 798725]”, for which the “% inhibition of SMAD7 mRNA expression” value under setting [1] was 29%.

“772559 (antisense kA*kG*k[5mC]*dG*dA*dG*dT*dA*dG*dG*dA*d[5mC]*dG*kA*kG*kG) [compound 772559]”: the “% inhibition of SMAD7 mRNA expression” value under setting [1] turned out to be 14%.

Consider “830173 (antisense kA*kG*kA*dG*dG*dT*dG*dT*dT*dT*d[5mC]*d[5mC]*dA*kA*kG*kG) [compound 830173]”, for which the “% Inhibition” value under setting [6] was 48%.

For “799285 (antisense kG*kG*k[5mC]*dT*dT*d[5mC]*dA*d[5mC]*dT*dG*d[5mC]*d[5mC]*d[5mC]*kA*kT*k[5mC]) [compound 799285]”, the “% inhibition of SMAD7 mRNA expression” value under setting [7] was 36%.

For orientation: % Inhibition means the share of the control response that was lost under treatment.
